The text below walks through data of US11414432B2, “Condensed bicyclic heterocyclic derivatives as pest control agents” (Bayer Aktiengesellschaft, priority 2018, dated 2022).

The structures appear in SMILES notation.

As usually defined, the chromatographic logP is a lipophilicity value derived from retention on a column. Higher therefore signals a more lipophilic compound.

Data set [1] can be described thus: log P by HPLC on reversed-phase column (C18), acidic range. The class given is physicochemical. As to conditions: formic acid in water/acetonitrile, LC-UV. Here is the method:
The log P values were determined according to EEC Directive 79/831 Annex V.A8 by HPLC (high-performance liquid chromatography) on a reversed-phase column (C18) using the following methods: ^[a] […] Calibration was carried out using a homologous series of straight-chain alkan-2-ones (having 3 to 16 carbon atoms) with known log P values. The values between successive alkanones are determined by linear regression.

A further data set has as its system Ctenocephalides felis. Nature of the data set: Ctenocephalides felis oral test. In kind it is in vivo. To be noted: adult cat fleas, oral via citrated cattle blood, 100 ppm, after 2 days. As to the method:
Ctenocephalides felis—Oral Test
Solvent: dimethyl sulfoxide
To produce a suitable active compound formulation, 10 mg of active compound are mixed with 0.5 ml of dimethyl sulfoxide. Dilution with citrated cattle blood gives the desired concentration.
About 20 unfed adult cat fleas (Ctenocephalides felis) are placed into a chamber which is closed at the top and bottom with gauze. A metal cylinder whose bottom end is closed with parafilm is placed onto the chamber. The cylinder contains the blood/active compound formulation, which can be imbibed by the fleas through the parafilm membrane.
After 2 days, the kill in % is determined. 100% means that all of the fleas have been killed; 0% means that none of the fleas have been killed.

The test system of data set [2] is Myzus persicae. Description: Myzus persicae oral test. In kind it is in vivo. As to conditions: mixed population, oral through parafilm, 4 ppm, after 5 days. Here is the method:
Myzus persicae—Oral Test Solvent: 100 parts by weight of acetone To produce a suitable preparation of active compound, 1 part by weight of active compound is dissolved using the specified parts by weight of solvent and made up with water until the desired concentration is attained. 50 μl of the active compound preparation are transferred into microtitre plates and made up to a final volume of 200 μl with 150 μl of IPL41 insect medium (33%+15% sugar). Subsequently, the plates are sealed with parafilm, which a mixed population of green peach aphids (Myzus persicae) within a second microtitre plate is able to puncture and imbibe the solution through. After 5 days, the efficacy in % is determined. 100% means that all the aphids have been killed; 0% means that no aphids have been killed.

The subject of another data set is Meloidogyne incognita. Description: Meloidogyne incognita test. The class given is in vivo. As to conditions: lettuce in sand, egg/larvae suspension, 20 ppm, after 14 days. As to the method:
Meloidogyne incognita Test Solvent: 125.0 parts by weight of acetone To produce a suitable active compound formulation, 1 part by weight of active compound is mixed with the stated amount of solvent and the concentrate is diluted to the desired concentration with water. Vessels are filled with sand, active compound solution, an egg/larvae suspension of the southern root-knot nematode (Meloidogyne incognita) and lettuce seeds. The lettuce seeds germinate and the plants develop. The galls develop on the roots. After 14 days, the nematicidal efficacy in % is determined by the formation of galls. 100% means that no galls were found; 0% means that the number of galls on the treated plants corresponds to the untreated control.

In a further data set the test system is Spodoptera frugiperda. Description: Spodoptera frugiperda spray test. To be noted: caterpillars on maize leaf discs, 100 g/ha, after 7 days. In kind it is in vivo. Here is the method:
Spodoptera frugiperda—Spray Test Solvent: 78.0 parts by weight of acetone • • 1.5 parts by weight of dimethylformamide Emulsifier: alkylaryl polyglycol ether To produce a suitable active compound preparation, 1 part by weight of active compound is dissolved using the stated parts by weight of solvent and made up with water containing an emulsifier concentration of 1000 ppm until the desired concentration is attained. To produce further test concentrations, the formulation is diluted with emulsifier-containing water. Leaf discs of maize (Zea mays) are sprayed with an active compound formulation of the desired concentration and, after drying, populated with caterpillars of the fall armyworm (Spodoptera frugiperda). After 7 days, the efficacy in % is determined. 100% means that all the caterpillars have been killed; 0% means that no caterpillar has been killed.

In data set [3] the test system is Myzus persicae. Nature of the data set: Myzus persicae spray test. The class given is in vivo. To be noted: Chinese cabbage leaf discs, all stages, 100 g/ha, after 5 days. Here is the method:
Myzus persicae—Spray Test Solvent: 78 parts by weight of acetone • • 1.5 parts by weight of dimethylformamide Emulsifier: alkylaryl polyglycol ether To produce a suitable active compound preparation, 1 part by weight of active compound is dissolved using the stated parts by weight of solvent and made up with water containing an emulsifier concentration of 1000 ppm until the desired concentration is attained. To produce further test concentrations, the formulation is diluted with emulsifier-containing water. Discs of Chinese cabbage leaves (Brassica pekinensis) infested by all stages of the green peach aphid (Myzus persicae) are sprayed with an active compound formulation of the desired concentration. After 5 days, the efficacy in % is determined. 100% means that all the aphids have been killed; 0% means that no aphids have been killed.

The subject of a further data set is Diabrotica balteata. Description: Diabrotica balteata spray test. In kind it is in vivo. To be noted: beetle larvae on germinated wheat grains, 160 μg/cavity, after 7 days. As to the method: Diabrotica balteata—Spray Test Solvent: 78 parts by weight of acetone • • 1.5 parts by weight of dimethylformamide Emulsifier: alkylaryl polyglycol ether To produce a suitable active compound preparation, 1 part by weight of active compound is dissolved using the stated parts by weight of solvent and made up with water containing an emulsifier concentration of 1000 ppm until the desired concentration is attained. To produce further test concentrations, the formulation is diluted with emulsifier-containing water. Pre-swollen wheat grains (Triticum aestivum) are incubated in a multiwell plate filled with agar and a little water for one day (5 seed grains per cavity). The germinated wheat grains are sprayed with an active compound preparation of the desired concentration. Subsequently, each cavity is infected with 10-20 beetle larvae of Diabrotica balteata. After 7 days, the efficacy in % is determined. 100% means that all wheat plants have grown as in the untreated, uninfected control; 0% means that no wheat plant has grown.

Consider `Cn1c(C(F)(F)F)cc2nc(-c3nn4cc(C5(C#N)CC5)ccc4c3Br)n(C)c2c1=O`, for which the chromatographic logP in data set [1] was 3.37.

The compound `N#CC1(c2ccc3c(Br)c(C(=O)O)nn3c2)CC1` [3-Bromo-6-(1-cyanocyclopropyl)pyrazolo[1,5-a]pyridine-2-carboxylic Acid] had a chromatographic logP in data set [1] of 1.55.

On to `CCS(=O)(=O)c1c(-c2nc3cc(C(F)(F)F)n(C)c(=O)c3n2C)nn2cc(C3(C#N)CC3)ccc12` [Example I-01], for which the “efficacy (kill in %)” value in the data set on Ctenocephalides felis was 97%. The same compound gave a chromatographic logP in data set [1] of 2.8. The compound further came in with an efficacy in the data set with Myzus persicae [2] of 100%. Further, the “nematicidal efficacy (formation of galls)” value with Meloidogyne incognita came out at 100%.

For `CCS(=O)(=O)c1c(-c2nc3cc(C(F)(F)F)n(C)c(=O)c3n2C)nn2cc(CC#N)ccc12` [Example I-02], the efficacy in the data set with Spodoptera frugiperda and in the data set on Myzus persicae [2] was 100% throughout.

Consider `CCS(=O)(=O)c1c(-c2nc3cc(C(F)(F)F)n(C)c(=O)c3n2C)nn2cc(C3CC3)ccc12` [Example I-03], for which the efficacy in the data set on Myzus persicae [3] is reported as 90%; with Diabrotica balteata it was 100%; with Spodoptera frugiperda, 100%; with Myzus persicae [2], 100%.
